Measurements published in patent publication US20260327243A1, “SPIRO-HETEROCYCLIC INHIBITORS OF KRAS G12C MUTANT PROTEINS AND USES THEREOF” (AMGEN INC., priority 2023, published 2026).

What follows are compounds tested against KRAS^G12C (Homo sapiens, UniProt P01116, C118A/G12C) (assay: Coupled Nucleotide Exchange Assay). Conditions: GDP-bound KRAS (aa 1-169) G12C/C118A; 2 h compound pre-incubation; SOS-mediated exchange, 30 min; cRAF binding (AlphaLISA).
Assay type: biochemical
Experimental: The KRAS^G12C coupled nucleotide exchange assay allows for the screening and profiling of KRAS^G12C antagonists/inhibitors by monitoring the binding of an effector protein (e.g., a Ras binding domain of Raf1, RBD-cRaf) to KRAS^G12C. Purified GDP-bound KRAS protein (aa 1-169), containing both G12C and C118A amino acid substitutions and an N-terminal His-tag, was pre-incubated in assay buffer (25 mM HEPES pH 7.4, 10 mM MgCl2, 0.01% Triton X-100, either with or without 0.1% BSA) with serially diluted compound for 2 h. For all subsequent steps, BSA was omitted and DTT was added to the reaction buffer at a final concentration of 1 mM. Following compound pre-incubation, purified SOS protein (aa 564-1049) and GTP (Roche 10106399001) were added to the assay wells and incubated for an additional 30 min. To determine the extent of inhibition of SOS-mediated nucleotide exchange, purified GST-tagged cRAF (aa 1-149), nickel chelate AlphaLISA acceptor beads (PerkinElmer AL108R), and AlphaScreen glutathione donor beads (PerkinElmer 6765302) were added to the assay wells and incubated for 5-30 min. The assay plates were then read on a plate reader measuring luminescence signal. Signal intensity of compound-containing wells were normalized to DMSO control, and data were analyzed using a 4-parameter logistic model to calculate IC50 values.

KRAS^G12C, sequence (P01116 1-169 isoform P01116-2 G12C/C118A): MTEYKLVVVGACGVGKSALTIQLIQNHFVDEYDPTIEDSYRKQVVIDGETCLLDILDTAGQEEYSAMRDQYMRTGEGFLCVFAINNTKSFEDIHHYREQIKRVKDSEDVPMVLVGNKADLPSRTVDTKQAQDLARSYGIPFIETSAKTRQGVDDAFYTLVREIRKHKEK

IC50 | Compound
4.66 µM | C=CC(=O)N1CCN(C2CN(c3cc(N4CCC5(CCCO5)[C@H](CO)C4)nc(C(F)(F)F)c3C#N)C2)CC1 (single isomer, unassigned) [Compound 3-062-1]
0.867 µM | C=CC(=O)N1CCN(C2CN(c3cc(N4CCC5(CC4)O[C@@H](C)C=C5Cl)nc(C(F)(F)F)c3C#N)C2)CC1 (single isomer, unassigned) [Compound 3-067-2]
0.883 µM | C=CC(=O)N1CCN([C@@H]2CN(c3cc(N4CC[C@@]5(CC4C)OCCc4ncsc45)nc(C(F)(F)F)n3)[C@@H]2C)CC1 (single isomer, unassigned) [Compound 3-091-2]
2.24 µM | C=CC(=O)N1CCN([C@@H]2CN(c3cc(N4CCC5(C[C@@H]4C)OCC=C5C)nc(C(F)(F)F)n3)[C@@H]2C)CC1 (stereo partly drawn) [Compound 3-006, 1-(4-((2R,3R)-1-(6-(4,7-dimethyl-1-oxa-8-azaspiro[4.5]dec-3-en-8-yl)-2-(trifluoromethyl)pyrimidin-4-yl)-2-methylazetidin-3-yl)piper-azin-1-yl)prop-2-en-1-one]
6.57 µM | C=CC(=O)N1CCN([C@@H]2CN(c3cc(N4CCC5(C[C@@H]4C)OCC=C5C)nc(C(F)F)n3)[C@@H]2C)CC1 (stereo partly drawn) [Compound 3-007, 1-(4-((2R,3R)-1-(2-(difluorometh-yl)-6-(4.7-dimethyl-1-oxa-8-aza-spiro[4.5]dec-3-en-8-yl)pyrimidin-4-yl)-2-methyl-azetidin-3-yl)piper-azin-1-yl)-prop-2-en-1-one]
0.884 µM | C=CC(=O)N1CCN([C@@H]2CN(c3cc(N4CCC5(CC4)OCCC=C5C)nc(C(F)F)n3)[C@@H]2C)CC1 [Compound 3-009, 1-(4-((2R,3R)-1-(2-(difluorometh-yl)-6-(5-methyl-1-oxa-9-azaspiro [5.5]undec-4-en-9-yl)-pyrimidin-4-yl)-2-methylazetidin-3-yl)piper-azin-1-yl)prop-2-en-1-one]
0.66 µM | C=CC(=O)N1CCN([C@@H]2CN(c3cc(N4CCC5(C=CCO5)CC4)nc(C(F)(F)F)c3C#N)[C@@H]2C)CC1 [Compound 3-010, 4-((2R,3R)-3-(4-acryloylpiperazin-1-yl)-2-methylazetidin-1-yl)-6-(1-oxa-8-azaspiro[4.5]dec-3-en-8-yl)-2-(trifluoromethyl)nicotinonitrile]
0.964 µM | C=CC(=O)N1CCN([C@@H]2CN(c3cc(N4CCC5(C=CCO5)CC4)nc(C(F)(F)F)n3)[C@@H]2C)CC1 [Compound 3-011, 1-(4-((2R,3R)-1-(6-(1-oxa-8-aza-spiro[4.5]dec-3-en-8-yl)-2-(tri-fluoromethyl)pyrimidin-4-yl)-2-methylazetidin-3-yl)piperazin-1-yl)prop-2-en-1-one]
2.54 µM | C=CC(=O)N1CCN([C@@H]2CN(c3cc(N4CCC5(C=CCO5)CC4)nc(C(F)F)n3)[C@@H]2C)CC1 [Compound 3-012, 1-(4-((2R,3R)-1-(2-(difluorometh-yl)-6-(1-oxa-8-azaspiro[4.5]dec-3-en-8-yl)pyrimidin-4-yl)-2-methyl-azetidin-3-yl)piperazin-1-yl)prop-2-en-1-one]
5.64 µM | C=CC(=O)N1CCN(C2CN(c3cc(N4CCC5(CC4)c4ccccc4C(=O)N5C)nc(C(F)(F)F)n3)C2)CC1 [Compound 3-013]
1.98 µM | C=CC(=O)N1CCN(C2CN(c3cc(N4CCC5(CC4)COc4ccccc45)nc(C(F)(F)F)n3)C2)CC1 [Compound 3-018, 1-(4-(1-(6-(2H-spiro[benzofuran-3,4′-piperidin]-1′-yl)-2-(trifluoro-methyl)pyrimidin-4-yl)azetidin-3-yl)piperazin-1-yl)prop-2-en-1-one]
4.4 µM | C=CC(=O)N1CCN(C2CN(c3cc(N4CCC5(CC4)COC5)nc(C(F)(F)F)c3C#N)C2)CC1 [Compound 3-019, 4-(3-(4-acryloylpiperazin-1-yl)-azetidin-1-yl)-6-(2-oxa-7-azaspiro [3.5]nonan-7-yl)-2-(trifluorometh-yl)nicotinonitrile]
1.6 µM | C=CC(=O)N1CCN([C@@H]2CN(c3cc(N4CCC5(CCC(=O)N5C)CC4)nc(C(F)(F)F)n3)[C@@H]2C)CC1 [Compound 3-020, 8-(6-((2R,3R)-3-(4-Acryloylpiperazin-1-yl)-2-methylazetidin-1-yl)-2-(trifluoromethyl)pyrimidin-4-yl)-1-methyl-1,8-diazaspiro[4.5]decan-2-one]
3.86 µM | C=CC(=O)N1CCN([C@@H]2CN(c3cc(N4CCC5(C=CCOC5)CC4)nc(C(F)(F)F)n3)[C@@H]2C)CC1 [Compound 3-021, 1-(4-((2R,3R)-1-(6-(2-Oxa-9-azaspiro[5.5]undec-4-en-9-yl)-2-(trifluoromethyl)pyrimidin-4-yl)-2-methylazetidin-3-yl)piperazin-1-yl) prop-2-en-1-one]
5.61 µM | C=CC(=O)N1CCN([C@@H]2CN(c3cc(N4CCC5(CC4)C(F)(F)C54CC4)nc(C(F)(F)F)n3)[C@@H]2C)CC1 [Compound 3-022, 1-(4-((2R,3R)-1-(6-(10.10-difluoro-7-azadispiro[2.0.5^4.1^3]decan-7-yl)-2-(trifluoromethyl)pyrimidin-4-yl)-2-methylazetidin-3-yl)piperazin-1-yl)prop-2-en-1-one]
7.27 µM | C=CC(=O)N1CCN([C@@H]2CN(c3cc(N4CCC5(CC4)CC5CN4CCCC4)nc(C(F)(F)F)n3)[C@@H]2C)CC1 (stereo partly drawn) [Compound 3-023, 1-(4-((2R,3R)-2-methyl-1-(6-(1-(pyrrolidin-1-ylmethyl)-6-azaspiro[2.5]octan-6-yl)-2-(trifluoromethyl)pyrimidin-4-yl)azetidin-3-yl)piperazin-1-yl)prop-2-en-1-one]
6.1 µM | C=CC(=O)N1CCN(C2CN(c3cc(N4CCC5(CC4)COCCO5)nc(C(F)(F)F)c3C#N)C2)CC1 [Compound 3-024, 4-(3-(4-acryloylpiperazin-1-yl)azetidin-1-yl)-6-(1,4-dioxa-9-azaspiro[5.5]undecan-9-yl)-2-(trifluoromethyl)nicotinonitrile]
3.72 µM | C=CC(=O)N1CCN(C2CN(c3cc(N4C5CCC4CC4(CCCO4)C5)nc(C(F)(F)F)n3)C2)CC1 (centres unmarked) [Compound 3-025, 1-(4-(1-(6-(dihydro-3′H-8-azaspiro[bicyclo[3.2.1]octane-3,2′-furan]-8-yl)-2-(trifluoromethyl)pyrimidin-4-yl)azetidin-3-yl)piperazin-1-yl)prop-2-en-1-one]
1.95 µM | C=CC(=O)N1CCN([C@@H]2CN(c3cc(N4C5CCC4CC4(CCCO4)C5)nc(C(F)(F)F)n3)[C@@H]2C)CC1 (stereo partly drawn) [Compound 3-026, 1-(4-((2R,3R)-1-(6-(dihydro-3′H-8-azaspiro[bicyclo[3.2.1]octane-3,2′-furan]-8-yl)-2-(trifluoromethyl)pyrimidin-4-yl)-2-methylazetidin-3-yl)piperazin-1-yl)prop-2-en-1-one]
6.15 µM | C=CC(=O)N1CCN(C2(C)CN(c3cc(N4CCC5(CC4)OCc4ccccc45)nc(C(F)(F)F)n3)C2)CC1 [Compound 3-027, 1-(4-(1-(6-(3H-spiro[isobenzofuran-1.4′-piperidin]-1′-yl)-2-(trifluoromethyl)pyrimidin-4-yl)-3-methylazetidin-3-yl)piperazin-1-yl)prop-2-en-1-one]
8.68 µM | C=CC(=O)N1CCN(C2CN(c3cc(N4CCC5(CC4)CC(C)(O)CO5)nc(C(F)(F)F)c3C#N)C2)CC1 (centres unmarked) [Compound 3-029, 4-(3-(4-acryloylpiperazin-1-yl)azetidin-1-yl)-6-(3-hydroxy-3-methyl-1-oxa-8-azaspiro[4.5]decan-8-yl)-2-(trifluoromethyl)nicotinonitrile]
9.59 µM | C=CC(=O)N1CCN(C2CN(c3cc(N4CCC5(CC4)CC(C#N)CO5)nc(C(F)(F)F)c3C#N)C2)CC1 (centres unmarked) [Compound 3-030, 8-(4-(3-(4-acryloylpiperazin-1-yl)azetidin-1-yl)-5-cyano-6-(trifluoromethyl)pyridin-2-yl)-1-oxa-8-azaspiro[4.5]decane-3-carbonitrile]
9.25 µM | C=CC(=O)N1CCN(C2CN(c3cc(N4CCC5(CC4)OCCC5=O)nc(C(F)(F)F)c3C#N)C2)CC1 [Compound 3-031, 4-(3-(4-acryloylpiperazin-1-yl)azetidin-1-yl)-6-(4-oxo-1-oxa-8-azaspiro[4.5]decan-8-yl)-2-(trifluoromethyl)nicotinonitrile]
2.75 µM | C=CC(=O)N1CCN(C2CN(c3cc(N4CCC5(CC4)OC(=O)NC5(C)C)nc(C(F)(F)F)c3C#N)C2)CC1 [Compound 3-032, 4-(3-(4-acryloylpiperazin-1-yl)azetidin-1-yl)-6-(4,4-dimethyl-2-oxo-1-oxa-3,8-diazaspiro[4.5]decan-8-yl)-2-(trifluoromethyl)nicotinonitrile]
6.19 µM | C=CC(=O)N1CCN(C2CN(c3cc(N4CCC5(CC4)CN(CC)C(=O)O5)nc(C(F)(F)F)c3C#N)C2)CC1 [Compound 3-033, 4-(3-(4-acryloylpiperazin-1-yl)azetidin-1-yl)-6-(3-ethyl-2-oxo-1-oxa-3,8-diazaspiro[4.5]decan-8-yl)-2-(trifluoromethyl)nicotinonitrile]
2.45 µM | C=CC(=O)N1CCN(C2CN(c3cc(N4CCC5(CC4)OC(=O)NC54CCC4)nc(C(F)(F)F)c3C#N)C2)CC1 [Compound 3-034, 4-(3-(4-acryloylpiperazin-1-yl)azetidin-1-yl)-6-(12-oxo-11-oxa-8,13-diazadispiro[3.0.55.34]tridecan-8-yl)-2-(trifluoromethyl)nicotinonitrile]
